Assay [1] relates to H1 and H9 hESCs. In words: differentiation of day-6 CTB-like cells to STB, analysed at day 14. Particulars: for formation of multinucleate STB expressing STB markers: agonist present during initial 6-day treatment, 14-day treatment; for formation of large multinucleated STB, compared among S1PR agonists: compared to the S1PR1 agonist.
Excerpt: (§1) Differentiation of hPSCs (6 days protocol). […] The medium was replaced every day.
The test system of assay [2] is H1 and H9 hESCs. In words: 6-day differentiation of hESCs to CTB-like cells in chemically defined medium, marker expression by qPCR and immunofluorescence. As to conditions: for immunofluorescence expression of trophoblast/CTB markers in CTB-like cells: day 6, S1P or replacing agonist with BMP4 and SB431542 in E7 medium.
For assay [3], the system named is H1 and H9 hESCs. In words: differentiation of day-6 CTB-like cells to EVTs, analysed at day 12. As to conditions: for formation of EVTs, expression of EVT markers HLA-G and VE-Cadherin: agonist present during initial 6-day treatment, 12-day treatment; for formation of mesenchymal EVTs, compared among S1PR agonists: relative to the S1PR2 agonist.
Excerpt: as §1
For the next assay, the system named is H9 and H1 hESCs. Put plainly: 3-day differentiation of hESCs, quantitative image analysis of nuclear CDX2. Type of assay: cell-based, human. As to conditions: day 3; BMP4 and SB431542 in E7 medium with S1PR3 agonist. On the procedure: Differentiation of hPSCs to hPSC-TS^CDX2 and hPSC-TS cells. […] The medium was replaced every day. […] Alternatively, hPSCs after 2 or 3 days of differentiation were directly passaged into TSCM.
Immunofluorescence analysis.
Confocal image analysis. Image analysis was conducted using an image processing algorithm created in MATLAB. First, the DAPI stain was isolated, binarized, and processed to accurately represent the number of cells in each image. The primary-antibody stain of interest was isolated and processed in the same manner. Only primary-antibody pixels that overlap DAPI pixels were considered for analysis, and the average intensities of those pixels were measured and correlated to the nearest nuclei. This was performed for one control image and multiple experimental images. Each cell in the experimental images was considered positively stained if the average intensity of that cell was greater than the average intensity of all of the cells in the control image. Statistical analysis was done using a two-tailed t-test evaluating percent positive cells from different treatment periods.

[4] abbreviates: day 6, qualitative immunofluorescence.

As for `CCOc1ccc(-c2nc(-c3cccc4c3CCC4NCCO)no2)cc1OCC.Cl` (stereo not drawn) [CYM5442 hydrochloride], the “formation of multinucleate STB expressing STB markers” value in the assay with H1 and H9 hESCs [1] was “formation of multinucleate STB expressing KRT7 and hCG”. Besides, in the assay on H1 and H9 hESCs [2] (setting [4]), the “intensity of CDX2 and P63 expression, compared among S1PR agonists” value (“intensity … compared among S1PR agonists” below) is recorded as “higher”; the “nuclear P63 expression, compared among S1PR agonists” value is reported as “strongest”. For the same compound, the “immunofluorescence expression of trophoblast/CTB markers in CTB-like cells” value with H1 and H9 hESCs [2] is “Expression of CDX2, GATA3, P63, and TEAD4 was observed”. In addition, in the assay on H1 and H9 hESCs [3], the “formation of EVTs, expression of EVT markers HLA-G and VE-Cadherin” value is “expression of the EVT markers HLA-G and VE-Cadherin”; the “formation of mesenchymal EVTs, compared among S1PR agonists” value is “enhanced formation of mesenchymal EVTs”.

Take `Cc1cc(C(=O)Cn2cc(C#N)ccc2=O)c(C)n1Cc1ccccc1` [CYM5520]: in the assay with H1 and H9 hESCs [1], the “formation of multinucleate STB expressing STB markers” value was “formation of multinucleate STB expressing KRT7 and hCG”; the “formation of large multinucleated STB, compared among S1PR agonists” value was “more pronounced”. The “intensity … compared among S1PR agonists” value in the assay on H1 and H9 hESCs [2] (setting [4]) was “lower expression of CDX2, strong cytoplasmic expression of P63, and high heterogeneity in staining”. The “immunofluorescence expression of trophoblast/CTB markers in CTB-like cells” value in the assay on H1 and H9 hESCs [2] is “Expression of CDX2, GATA3, P63, and TEAD4 was observed”. The “formation of EVTs, expression of EVT markers HLA-G and VE-Cadherin” value with H1 and H9 hESCs [3] was “expression of the EVT markers HLA-G and VE-Cadherin”.

Take `O=C(c1cc(C2CC2)on1)N(C1CCCCC1)C1CCCCC1` [CYM5541]: in the assay on H1 and H9 hESCs [1], the “formation of multinucleate STB expressing STB markers” value was “formation of multinucleate STB expressing KRT7 and hCG”; the “formation of large multinucleated STB, compared among S1PR agonists” value is “more pronounced”. The “intensity … compared among S1PR agonists” value in the assay with H1 and H9 hESCs [2] (setting [4]) was “higher”. The “intensity … compared among S1PR agonists” value in the assay with H1 and H9 hESCs [2] (day 6, qualitative immunofluorescence, listed as S1PR3 agonist) is on record as “high CDX2 expression”. In the assay on H1 and H9 hESCs [2], the “immunofluorescence expression of trophoblast/CTB markers in CTB-like cells” value was “Expression of CDX2, GATA3, P63, and TEAD4 was observed”. Moreover, in the assay on H1 and H9 hESCs [3], the “formation of EVTs, expression of EVT markers HLA-G and VE-Cadherin” value was “expression of the EVT markers HLA-G and VE-Cadherin”; the “formation of mesenchymal EVTs, compared among S1PR agonists” value is listed as “enhanced formation of mesenchymal EVTs”. For the same compound, the “fraction of CDX2+ cells” value with H9 and H1 hESCs is given as “nearly all cells are CDX2^+”.

With `CCCCCCCCCCCCC/C=C/[C@@H](O)[C@@H](N)COP(=O)(O)O` [S1P, sphingosine-1 phosphate], the “differentiation to STB in the absence of S1P” value in the assay with H1 and H9 hESCs [1] (S1P removed during initial 6-day treatment, syncytin and KRT7 staining) is on record as “did not occur”. Further, the “formation of multinucleate STB expressing STB markers” value in the assay on H1 and H9 hESCs [1] is “formation of KRT7^+ multinucleate cells expressing the STB markers hCG and syncytin”. Moreover, the “gene expression of CTB markers CDX2 and ELF5” value in the assay on H1 and H9 hESCs [2] (H1 and H9 hESCs, 6 days in E7 medium supplemented with S1P, with BMP4 and SB431542, compared to hESCs) is “upregulation of the CTB markers CDX2 and ELF5 was observed”. Also, the “gene expression of neural and mesodermal markers” value with H1 and H9 hESCs [2] (H1 and H9 hESCs, after 6 days in E7 medium supplemented with S1P, with BMP4 and SB431542) was “no significant changes in markers associated with neural or mesodermal differentiation”. Moreover, the “gene expression after 6 days of differentiation upon removal of S1P” value in the assay with H1 and H9 hESCs [2] (H9 and H1 hESCs, compared to 6-day treatment in the presence of S1P) is “downregulation of the CTB marker CDX2 and upregulation of transcripts of neural and mesoderm markers”. Further, the “immunofluorescence expression of trophoblast/CTB markers in CTB-like cells” value in the assay on H1 and H9 hESCs [2] is “confirmed expression of the pan-trophoblast marker KRT7, and CTB markers P63 and GATA3”. In the assay on H1 and H9 hESCs [3] (S1P removed during hESC differentiation to CTB-like cells, identical differentiation conditions), the “formation of EVTs upon removal of S1P” value is reported as “abolished formation of EVTs”. Further, the “formation of EVTs, expression of EVT markers HLA-G and VE-Cadherin” value in the assay with H1 and H9 hESCs [3] is “expression of KRT7 and the EVT markers VE-Cadherin and HLA-G”.

On to `CCCCCCCCCCCCCCC[C@@H](O)[C@@H](N)COP(=O)(O)O` [dhS1P, D-erythro-dihydrospingosine-1-phosphate], for which, in the assay with H1 and H9 hESCs [1], the “formation of multinucleate STB expressing STB markers” value was “STB expressing KRT7 and hCG”. Besides, the “immunofluorescence expression of trophoblast/CTB markers in CTB-like cells” value with H1 and H9 hESCs [2] is “CTB-like cells showed expression of CDX2, GATA3, P63, and TEAD4”. Also, the “formation of EVTs, expression of EVT markers HLA-G and VE-Cadherin” value in the assay on H1 and H9 hESCs [3] was “EVT expressing HLA-G and VE-Cadherin were obtained”.

The values are drawn from patent US12545890B2, “Compositions and methods for derivation of trophoblast stem cells” (North Carolina State University, priority 2019, dated 2026).
